Measurements as given in paper PMC4183595, “Study on the Main Components Interaction from Flos Lonicerae and Fructus Forsythiae and Their Dissolution In Vitro and Intestinal Absorption in Rats” (PLoS ONE, 2014).
Like-named read-outs stand apart in the source and are kept apart here.

How the values were obtained:
[1] = system: Caco-2 cells; experiment: In vitro Caco-2 monolayer model, apical to basolateral transport (P app); assay type: in vitro ADME, human; conditions: for P app in product C group, % compared with that in product B group / P app in product C group, % compared to that in product A group: Caco-2 monolayer, HBSS pH 6.0, apical to basolateral; for absorption into Caco-2 cells: dipsacoside B, macranthoidin B in product C or A group, arctiin in product C or B group
Experimental: Caco-2 cells were cultured in high glucose DMEM with 10% fetal bovine serum, 1% nonessential amino acids. Cells were cultured in a humidified atmosphere of 5% CO2 at 37°C. After reaching 80% confluens, Caco-2 cells were harvested with 0.05% trypsin-EDTA solution and seeded on top of CC inserts in 6-well plates, which has a surface area of 4.2 cm^2, at a density of 1.0×10^5 cells/cm^2. The protocols for cell culture in Transwell inserts were similar to those described previously.
Hank’s balanced salt solution (HBSS) was used as the transport buffer for the transport study in Caco-2 cells monolayer model. It was prepared by dissolving 9.5 grams of commercial available HBSS powder in 1000 mL water.
Cell culture experiments were described previously. Briefly, after culture medium was aspirated, the cell monolayers were washed three times with blank HBSS. […] The monolayers were incubated with the blank HBSS for 1 h with 37°C. Thereafter the incubation medium was aspirated. Afterwards, a solution containing the compound was loaded onto the apical side. The amounts of transported compound were measured as a function of time. […] The samples were taken at 0, 1, 2, 3 and 4 h after incubation. At the end of the transport experiment, integrity of the monolayer was monitored by TEER value.

[2] = Rat in vivo pharmacokinetics study after oral administration of product A, B or C; set-up: species or system Male Sprague-Dawley (SD) rats; AUC 0→t in product C group, increased to % compared to that in product A or B groups: concentration or dose not given beside the values; conditions: for AUC(0-inf) / MRT / Tmax / half-life / Cmax / AUC(0-t): male, Sprague-Dawley, rat, plasma; for AUC(0-inf) / MRT / Tmax / half-life / Cmax: po, 10 mL·kg^−1, rats; for AUC(0-inf) / MRT / Tmax / half-life / AUC(0-t): 10 mL·kg^−1; for half-life: read-out: T 1/2z; for Cmax: mean±SD; for AUC 0→t in product C group compared with product A or B group / AUC(0-t) / AUC 0→t in product C group, increased to % compared to that in product A or B groups / bioavailability in product C group compared with that in product A group / bioavailability in product C group compared with that in product B group: rats; for AUC 0→t in product C group compared with product A or B group / AUC 0→t in product C group, increased to % compared to that in product A or B groups / bioavailability in product C group compared with that in product A group / bioavailability in product C group compared with that in product B group: oral; for AUC 0→t in product C group compared with product A or B group: same dosages administrated; for AUC(0-t): oral product C group; for AUC 0→t in product C group, increased to % compared to that in product A or B groups: product C versus product A or B
Experimental: Product A (extract mixed with FLJ extract and water, (1∶1, v / v )), product B (extract mixed with FF extract and water, (1∶1, v / v )) and product C (extract mixed with FLJ and FF extracts, (1∶1, v / v )) were given to oral administration to rats, respectively.
Male SD rats (∼250 g) were kept in an environmentally controlled breeding room (temperature: 20±2°C, relative humidity: 60±5%) for 1 week. […] The rats were randomly divided into three groups with no less than six rats in each group to receive various administrations at a single oral dose (10 mL·kg^−1) by gastric gavage. […] Subsequently, plasma was prepared by centrifugation at 1,816×g, 4°C for 7 min, and immediately analyzed or stored at −70°C for further analysis.
The main pharmacokinetic parameters including the peak plasma concentration (C max), the time to C max (T max), the AUC from 0 to infinity (AUC 0–∞), the AUC form 0 to time (AUC 0–t), mean residence time (MRT), and terminal elimination half-life (T 1/2z) were calculated by the non-compartmental analysis of plasma concentration vs. time data using the “DAS 2.1.1” software (Mathematical Pharmacology Professional Committee of China, Shanghai, China).

[3] = single oral dose 10 mL·kg^−1 of product B (FF extract and water 1:1)
[4] = single oral dose 10 mL·kg^−1 of product C (FLJ and FF extracts 1:1)
[5] = single oral dose 10 mL·kg^−1 of product A (FLJ extract and water 1:1)

SMILES: COc1cc(C[C@H]2C(=O)OC[C@@H]2Cc2ccc(OC)c(OC)c2)ccc1O [Arctigenin]
- P app in product C group, % compared with that in product B group [1]: 110%
- AUC(0-inf) ([2]; oral product B): 4.44 ng·h/mL
- MRT ([2]; oral product B): 9.33 h
- Tmax ([2]; oral product B): 0.333 h
- half-life ([2]; oral product B): 10.4 ± 0.36 h
- AUC(0-inf) ([2]; oral product C): 3.99 ng·h/mL
- MRT ([2]; oral product C): 9.4 h
- Tmax ([2]; oral product C): 0.333 h
- half-life ([2]; oral product C): 8.9 ± 0.898 h
- Cmax [2, 3]: 0.895 ± 0.166 ng/mL
- Cmax [2, 4]: 0.231 ± 0.144 ng/mL
- AUC 0→t in product C group compared with product A or B group [2]: lower significantly

SMILES: O=c1c(O[C@@H]2O[C@H](CO)[C@@H](O)[C@H](O)[C@H]2O)c(-c2ccc(O)cc2)oc2cc(O)cc(O)c12 [Astragalin]
- P app in product C group, % compared to that in product A group [1]: 131%
- AUC(0-t) [2]: 4.17 ng·h/mL
- AUC(0-inf) ([2]; oral product A): 4.32 ng·h/mL
- MRT ([2]; oral product A): 8.15 h
- Tmax ([2]; oral product A): 0.167 h
- half-life ([2]; oral product A): 7.67 ± 0.263 h
- AUC(0-inf) ([2]; oral product C): 6.26 ng·h/mL
- MRT ([2]; oral product C): 11.3 h
- Tmax ([2]; oral product C): 0.167 h
- half-life ([2]; oral product C): 11.6 ± 1.72 h
- Cmax [2, 5]: 0.441 ± 0.166 ng/mL
- Cmax [2, 4]: 0.551 ± 0.207 ng/mL
- AUC 0→t in product C group, increased to % compared to that in product A or B groups [2]: 145%

SMILES: O=C(O)/C=C/c1ccc(O)c(O)c1 [Caffeic acid]
- P app in product C group, % compared to that in product A group [1]: 275%
- P app in product C group, % compared with that in product B group [1]: 247%
- AUC(0-inf) ([2]; oral product A): 1190 ng·h/mL
- MRT ([2]; oral product A): 6.65 h
- Tmax ([2]; oral product A): 0.167 h
- half-life ([2]; oral product A): 6 ± 1.1 h
- AUC(0-inf) ([2]; oral product B): 683 ng·h/mL
- MRT ([2]; oral product B): 5.57 h
- Tmax ([2]; oral product B): 0.167 h
- half-life ([2]; oral product B): 5.53 ± 0.893 h
- AUC(0-inf) ([2]; oral product C): 737 ng·h/mL
- MRT ([2]; oral product C): 6.28 h
- Tmax ([2]; oral product C): 0.167 h
- half-life ([2]; oral product C): 6.53 ± 1.02 h
- Cmax [2, 5]: 181 ± 17.6 ng/mL
- Cmax [2, 3]: 91.1 ± 6.74 ng/mL
- Cmax [2, 4]: 98.1 ± 16.2 ng/mL
- bioavailability in product C group compared with that in product A group [2]: significantly lower
- bioavailability in product C group compared with that in product B group [2]: no significant difference

SMILES: O=c1c(-c2ccc(O)cc2)coc2cc(O)cc(O)c12 [Genistein]
- P app in product C group, % compared to that in product A group [1]: 293%
- AUC(0-inf) ([2]; oral product A): 240 ng·h/mL
- MRT ([2]; oral product A): 10.8 h
- Tmax ([2]; oral product A): 0.233 h
- half-life ([2]; oral product A): 10 ± 1.27 h
- AUC(0-inf) ([2]; oral product C): 28.6 ng·h/mL
- MRT ([2]; oral product C): 7.72 h
- Tmax ([2]; oral product C): 0.25 h
- half-life ([2]; oral product C): 6.85 ± 1.13 h
- Cmax [2, 5]: 5.09 ± 2.46 ng/mL
- Cmax [2, 4]: 2.3 ± 1 ng/mL
- AUC 0→t in product C group compared with product A or B group [2]: lower significantly

SMILES: O=c1c(-c2ccc(O)cc2)coc2cc(O[C@@H]3O[C@H](CO)[C@@H](O)[C@H](O)[C@H]3O)cc(O)c12 [Genistin]
- P app in product C group, % compared to that in product A group [1]: 165%
- AUC(0-t) [2]: 0.548 ng·h/mL
- AUC(0-inf) ([2]; oral product A): 0.63 ng·h/mL
- Tmax ([2]; oral product A): 0.267 h
- half-life ([2]; oral product A): 8.03 ± 0.305 h
- AUC(0-inf) ([2]; oral product C): 0.822 ng·h/mL
- Tmax ([2]; oral product C): 0.333 h
- half-life ([2]; oral product C): 9.2 ± 0.455 h
- Cmax [2, 5]: 0.055 ± 0.0154 ng/mL
- Cmax [2, 4]: 0.0753 ± 0.0285 ng/mL
- AUC 0→t in product C group, increased to % compared to that in product A or B groups [2]: 131%

SMILES: O=c1c(O[C@@H]2O[C@H](CO)[C@H](O)[C@H](O)[C@H]2O)c(-c2ccc(O)c(O)c2)oc2cc(O)cc(O)c12 [Hyperoside]
- P app in product C group, % compared to that in product A group [1]: 129%
- P app in product C group, % compared with that in product B group [1]: 195%
- AUC(0-inf) ([2]; oral product A): 9.89 ng·h/mL
- MRT ([2]; oral product A): 7.27 h
- Tmax ([2]; oral product A): 0.167 h
- half-life ([2]; oral product A): 6.83 ± 1.63 h
- AUC(0-inf) ([2]; oral product B): 10.4 ng·h/mL
- MRT ([2]; oral product B): 6.82 h
- half-life ([2]; oral product B): 6.68 ± 0.487 h
- AUC(0-inf) ([2]; oral product C): 24.6 ng·h/mL
- MRT ([2]; oral product C): 6.45 h
- Tmax ([2]; oral product C): 0.167 h
- half-life ([2]; oral product C): 7.05 ± 0.688 h
- Cmax [2, 5]: 5.25 ± 0.859 ng/mL
- Cmax [2, 3]: 9.68 ± 4.39 ng/mL
- Cmax [2, 4]: 22.1 ± 1.9 ng/mL
- bioavailability in product C group compared with that in product A group [2]: significantly higher
- bioavailability in product C group compared with that in product B group [2]: significantly higher

SMILES: O=c1c(O[C@@H]2O[C@H](CO)[C@@H](O)[C@H](O)[C@H]2O)c(-c2ccc(O)c(O)c2)oc2cc(O)cc(O)c12 [Isoquercitrin]
- P app in product C group, % compared to that in product A group [1]: 169%
- P app in product C group, % compared with that in product B group [1]: 234%
- AUC(0-inf) ([2]; oral product A): 2.63 ng·h/mL
- MRT ([2]; oral product A): 9.28 h
- Tmax ([2]; oral product A): 0.167 h
- half-life ([2]; oral product A): 7.27 ± 0.438 h
- AUC(0-inf) ([2]; oral product B): 3.25 ng·h/mL
- MRT ([2]; oral product B): 8.3 h
- Tmax ([2]; oral product B): 0.333 h
- half-life ([2]; oral product B): 7.85 ± 0.515 h
- AUC(0-inf) ([2]; oral product C): 5.51 ng·h/mL
- MRT ([2]; oral product C): 9.25 h
- Tmax ([2]; oral product C): 0.267 h
- half-life ([2]; oral product C): 7.58 ± 0.868 h
- Cmax [2, 5]: 0.504 ± 0.351 ng/mL
- Cmax [2, 3]: 0.619 ± 0.212 ng/mL
- Cmax [2, 4]: 1 ± 0.3 ng/mL
- bioavailability in product C group compared with that in product A group [2]: no significantly different
- bioavailability in product C group compared with that in product B group [2]: no significantly different

SMILES: COC(=O)C1=CO[C@@H](O[C@@H]2O[C@H](CO)[C@@H](O)[C@H](O)[C@H]2O)[C@@H]2[C@@H](C)[C@@H](O)C[C@H]12 [Loganin]
- P app in product C group, % compared to that in product A group [1]: 211%
- AUC(0-t) [2]: 108 ng·h/mL
- AUC(0-inf) ([2]; oral product A): 92.9 ng·h/mL
- MRT ([2]; oral product A): 5.82 h
- Tmax ([2]; oral product A): 0.35 h
- half-life ([2]; oral product A): 2.07 ± 0.205 h
- AUC(0-inf) ([2]; oral product C): 140 ng·h/mL
- MRT ([2]; oral product C): 7.83 h
- Tmax ([2]; oral product C): 0.267 h
- half-life ([2]; oral product C): 7.33 ± 0.273 h
- Cmax [2, 5]: 28 ± 4.93 ng/mL
- Cmax [2, 4]: 54.7 ± 8.63 ng/mL
- AUC 0→t in product C group, increased to % compared to that in product A or B groups [2]: 121%

SMILES: COc1ccc(C[C@H]2COC(=O)[C@@H]2Cc2ccc(O[C@@H]3O[C@H](CO)[C@@H](O)[C@H](O)[C@H]3O)c(OC)c2)cc1OC [arctiin]
- absorption into Caco-2 cells [1]: might not be absorbed well

SMILES: C[C@@H]1O[C@@H](O[C@H]2[C@H](O[C@H]3CC[C@@]4(C)[C@@H](CC[C@]5(C)[C@@H]4CC=C4[C@@H]6CC(C)(C)CC[C@]6(C(=O)O[C@@H]6O[C@H](CO[C@@H]7O[C@H](CO)[C@@H](O)[C@H](O)[C@H]7O)[C@@H](O)[C@H](O)[C@H]6O)CC[C@]45C)[C@]3(C)CO)OC[C@H](O)[C@@H]2O)[C@H](O)[C@H](O)[C@H]1O [dipsacoside B]
- absorption into Caco-2 cells [1]: might not be absorbed well
